# Patent US20050226913A1, “Article for inhibiting microbial growth in physiological fluids” (Eastman Kodak Company, priority 2004, published 2005)
# Experiment: Stability constant (log βn) of ligand with Fe(III)
# Settings: Fe(III) (target) minus Ca (interfering), from Table 1
# Source text: Herein the stability constant for the reaction of a metal-ion (M) and a sequestrant or ligand (L) is defined as follows: M+nL⇄MLn
# where the stability constant is βn=[MLn]/[M][L]^n, wherein [MLn] is the concentration of “complexed” metal-ion, [M] is the concentration of free (uncomplexed) metal-ion and [L] is the concentration of free ligand. The log of the stability constant is log βn, and n is the number of ligands, which coordinate with the metal.
compound,measurement,value
"O=C(O)CN(CCN(CC(=O)O)CC(=O)O)CCN(CC(=O)O)CC(=O)O [DTPA, diethylenetriaminepentaacetic acid]",selectivity: difference between the log stability constants,17.2
